Laboratory results reported in patent US12564576B2, “Therapeutic agent for vascular disorder” (NATIONAL UNIVERSITY CORPORATION KUMAMOTO UNIVERSITY, priority 2020, dated 2026).

Tested on: synthesis and secretion of a type IV collagen protein in vascular endothelial cells derived from iPS cells
Test: Amount of type IV collagen protein released into the medium by iPS-derived vascular endothelial cells (Western blotting)
Format: cell-based, human
Settings: 10 nmol/L digoxin, serum-free medium, 3 days culture; FIG. 3
Method: As the cells, iPS cells derived from healthy adults and patients with scleroderma established at Kumamoto University were used (Zhongzhi Wang, et al., JDS 2016 November; 84(2): 186-196.). Scleroderma is known to cause Raynaud's syndrome, which is one of peripheral vascular disorders, as a symptom of scleroderma, and therefore was employed as a vascular disorder model cell.
Differentiation induction into vascular endothelial cells was performed by culturing iPS cells derived from healthy adults and patients with scleroderma under the conditions described in Table 1.
As the obtained cells, only cells positive for VE-cadherin (CD144) and PECAM-1 (CD31), which are vascular endothelial cell markers, were sorted using flow cytometry. From the morphology of the sorted cells and the expression of the marker genes, it was confirmed that the sorted cells were vascular endothelial cells. […]
In the above (1), using the cell supernatant cultured in the serum-free medium, the amount of a type IV collagen protein released into the medium was quantified by the following method.
First, proteins released into the medium were concentrated. […] After removal of ethanol, the precipitate was dried and dissolved in an RIPA buffer, and each sample was adjusted to have a protein concentration of 1 mg/ml using a protein quantification reagent (Bradford Protein Assay, manufactured by Bio-Rad Laboratories, Inc.). […]

For `C[C@H]1O[C@@H](O[C@H]2[C@@H](O)C[C@H](O[C@H]3[C@@H](O)C[C@H](O[C@H]4CC[C@@]5(C)[C@H](CC[C@@H]6[C@@H]5C[C@@H](O)[C@]5(C)[C@@H](C7=CC(=O)OC7)CC[C@]65O)C4)O[C@@H]3C)O[C@@H]2C)C[C@H](O)[C@@H]1O` [digoxin], the “amount of a type IV collagen protein in the medium” value was “hardly reduced”.
